Laboratory results from patent publication US10906876B2, “Tetrahydroisoquinolines as selective NADPH oxidase 2 inhibitors” (University of Pittsburgh—Of the Commonwealth System of …, priority 2013, dated 2021).

molecular target: T1, Nox4 (Homo sapiens, UniProt Q9NPH5); experiment: Constitutive Nox4 activity in transiently transfected COS-Nox4 cells, Amplex Red assay; type: cell-based; conditions: COS-Nox4 cells
T1 construct: Plasmids encoding full-length human cDNAs for Nox1 (pcDNA3.1-hNox1), NOXO1 (pcDNA3.1-hNOXO1), NOXA1 (pCMVsport 6-hNOXA1), p47phox (pCMV-Tag4A-hp47) and Nox4 (pcDNA3-hNox4); expressed in transfected cells; host or cells: COS-22 (COS-7 stably expressing human p22phox), transient transfection with pcDNA3.1/Hygro-hNox4
T1 sequence (Q9NPH5 1-578): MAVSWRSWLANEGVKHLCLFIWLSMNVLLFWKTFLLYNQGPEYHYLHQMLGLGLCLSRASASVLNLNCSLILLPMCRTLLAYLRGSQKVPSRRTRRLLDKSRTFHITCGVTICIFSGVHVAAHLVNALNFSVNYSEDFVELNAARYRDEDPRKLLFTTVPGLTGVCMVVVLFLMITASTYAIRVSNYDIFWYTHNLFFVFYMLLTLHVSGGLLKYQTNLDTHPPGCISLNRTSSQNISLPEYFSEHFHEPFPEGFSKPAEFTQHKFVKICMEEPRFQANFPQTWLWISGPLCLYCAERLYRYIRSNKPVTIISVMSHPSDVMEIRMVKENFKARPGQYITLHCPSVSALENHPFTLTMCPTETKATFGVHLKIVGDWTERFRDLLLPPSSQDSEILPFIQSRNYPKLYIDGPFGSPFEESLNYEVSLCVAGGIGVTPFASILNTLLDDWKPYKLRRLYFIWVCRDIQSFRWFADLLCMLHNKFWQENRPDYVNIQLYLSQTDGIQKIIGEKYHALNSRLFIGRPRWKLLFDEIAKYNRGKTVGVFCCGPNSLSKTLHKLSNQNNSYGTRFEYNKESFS
T1 sequence (P13498 2-195 partner limits assumed): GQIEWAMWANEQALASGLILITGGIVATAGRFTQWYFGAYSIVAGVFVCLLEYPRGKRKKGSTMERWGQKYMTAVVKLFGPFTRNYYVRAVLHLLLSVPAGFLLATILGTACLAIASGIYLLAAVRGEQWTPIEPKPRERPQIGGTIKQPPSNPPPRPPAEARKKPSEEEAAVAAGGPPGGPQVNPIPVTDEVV
From the text: Plasmids encoding full-length human cDNAs for Nox1 (pcDNA3.1-hNox1), NOXO1 (pcDNA3.1-hNOXO1), NOXA1 (pCMVsport 6-hNOXA1), p47phox (pCMV-Tag4A-hp47) and Nox4 (pcDNA3-hNox4) were kindly provided by Dr. David Lambeth (Emory University, Ga.). Plasmids encoding Nox1, NOXO1, or NOXA1 were transformed and amplified into Escherichia coli strain TOP10 (Invitrogen, Carlsbad, Calif.). Plasmids were purified using a QIAfilter plasmid purification kit (QIAGEN Inc., Valencia, Calif.). For human Nox4 expression, the BglII/NotI restriction fragment from the pcDNA3-hNox4 was subcloned into the plasmid pcDNA3.1/Hygro(−) (Invitrogen, Carlsbad, Calif.) to generate pcDNA3.1/Hygro-hNox4. The fragment sequence, in-frame insertion and orientation were validated by DNA sequencing after PCR amplification. pcDNA3.1/Hygro-hNox4 was amplified into Escherichia coli strain TOP10 and purified with a QIAfilter plasmid purification kit.
Cell transfection was carried out using Lipofectamine LTX and Plus reagent (Invitrogen, Carlsbad, Calif., USA), according to the manufacturer's instructions. COS-22 cells were transiently co-transfected with pcDNA 3.1-hNox1, pCMVsport 6-hNOXA1 and pcDNA3.1-hNoxO1 (COS-Nox1/NOXO1/NOXA1 cells) or with pcDNA3.1/Hygro-hNox4 (COS-Nox4 cells). Cells were used 24 hr after transfection. Adherent cells were harvested by incubating with 0.05% trypsin/EDTA for 5 min at 37° C. Following addition of DMEM/10% FBS to neutralize the trypsin, the cells were pelleted by centrifugation at 1100×g for 5 min at 4° C. and used for the experiments.
H2O2 production was quantified in intact COS-Nox4 cells by Amplex® Red. Briefly, COS-Nox4 cells (5×10^4 cells/ml) were re-plated into 384-well plate in assay buffer (25 mM Hepes, pH 7.4, containing 0.12 M NaCl, 3 mM KCl, 1 mM MgCl2). The cells were incubated in the presence or absence of drugs at 37° C. in assay buffer supplemented with 0.1 mM Amplex® Red, and 0.32 U/ml of horse radish peroxidase (HRP) for 15 min. Fluorescence measurements were made using a Biotek Synergy 4 Hybrid Multi-Mode Microplate Reader with a 530/25-excitation and a 590/35-emission filter. The reaction was monitored at 37° C. for 1 h. A standard curve of known H2O2 concentrations was included on each plate. Nox4 activity was obtained by calculating the rate of H2O2 production as RFU/min and then subtracting the equivalent value given by non-transfected COS-22 cells. Similarly, H2O2 production by Nox2 cells was also measured by Amplex® Red as described above but in the presence of 150 U/mL of SOD and the reaction was initiated by addition of 5 μM PMA. The rate of H2O2 production in this case was calculated as RFU/min after the subtraction of the equivalent value given by non-stimulated cells. Data are expressed as % of vehicle control.
All data are expressed as means±SEM. IC50 values were determined using the GraphPad Prism software (GraphPad Software, San Diego, Calif.) for non-linear regression three-parameters, with constrain values of 100 and 0 for top and bottom, respectively, and assumes a Hill slope of 1.

| SMILES | Nox4 inhibitory activity |
| --- | --- |
| C=C(C)CC1C2c3c(Br)cccc3C(CC2(C)C)N1Cc1cccs1 (racemic) [Compound 11h, (±)-(1S,4R,9S)-5-Bromo-3,3-dimethyl-9-(2-methylallyl)-10-(thiophen-2-ylmethyl)-1,2,3,4-tetrahydro-1,4-(epiminomethano)naphthalene] | virtually no effect |
| C=C(C)CC1NC2CC(C)(C)C1c1c(Br)cccc12 (racemic) [Compound 7, (±)-(1S,4R,9S)-5-Bromo-3,3-dimethyl-9-(2-methylallyl)-1,2,3,4-tetrahydro-1,4-(epimino-methano)-naphthalene] | inactive |
| C=C(C)CC1NC2CC(C)(C)C1c1ccccc12 (racemic) [Compound 8, (±)-(1S,4R,9S)-3,3-Dimethyl-9-(2-methylallyl)-1,2,3,4-tetrahydro-1,4-(epiminomethano)-naphthalene] | inactive |
| C=C(C)CC1C2c3c(Br)cccc3C(CC2(C)C)N1CCCCC (racemic) [Compound 11g, (±)-(1S,4R,9S)-5-Bromo-3,3-dimethyl-9-(2-methylallyl-10-pentyl-1,2,3,4-tetrahydro-1,4-(epiminomethano)naphthalene] | virtually no effect |

same assay, conditions: constitutive activity, transiently transfected COS-Nox4 cells, read-out: IC50 of ROS generation, Nox4 (Amplex Red assay)

| SMILES | IC50 [µM] |
| --- | --- |
| C=C(C)CC1C2c3c(Br)cccc3C(CC2(C)C)N1Cc1ccc2c(c1)OCO2 (racemic) [Compound 11d, (±)-(1S,4R,9S)-10-(Benzo[d][1,3]dioxol-5-ylmethyl)-5-bromo-3,3-dimethyl-9-(2-methylallyl)-1,2,3,4-tetrahydro-1,4-(epiminomethano)naphthalene] | > 100 |
| C=C(C)CC1C2c3c(Br)cccc3C(CC2(C)C)N1Cc1cccc(F)c1 (racemic) [Compound 11f, (±)-(1S,4R,9S)-5-Bromo-10-(3-fluorobenzyl)-3,3-dimethyl-9-(2-methylallyl)-1,2,3,4-tetrahydro-1,4-(epiminomethano)naphthalene] | > 100 |
| CC(C)CC1NC2CC(C)(C)C1c1c(Br)cccc12 (racemic) [Compound 13] | > 100 |
| C=C(C)CC1NC2CC(C)(C)C1c1c(Br)cccc12 (racemic) [Compound 7, (±)-(1S,4R,9S)-5-Bromo-3,3-dimethyl-9-(2-methylallyl)-1,2,3,4-tetrahydro-1,4-(epimino-methano)-naphthalene] | > 100 |
| C=C(C)CC1C2c3ccccc3C(CC2(C)C)N1Cc1cccc(F)c1 (racemic) [Compound 11a, (±)-(1S,4R,9S)-10-(3-Fluorobenzyl)-3,3-dimethyl-9-(2-methylallyl)-1,2,3,4-tetrahydro-1,4-(epiminomethano)naphthalene] | > 100 |
| C=C(C)CC1C2c3c(Br)cccc3C(CC2(C)C)N1Cc1cc(C)on1 (racemic) [Compound 11e, (±)-3-(1S,4R,9S)-5-Bromo-3,3-dimethyl-9-(2-methylallyl)-1,2,3,4-tetrahydro-1,4-(epimino-methano) naphthalen-10-yl)methyl)-5-methylisoxazole] | > 100 |
| C=C(C)CC1C2c3c(Br)cccc3C(CC2(C)C)N1CCCCC (racemic) [Compound 11g, (±)-(1S,4R,9S)-5-Bromo-3,3-dimethyl-9-(2-methylallyl-10-pentyl-1,2,3,4-tetrahydro-1,4-(epiminomethano)naphthalene] | > 100 |

Continued, values first:

| IC50 [µM] | SMILES |
| --- | --- |
| > 100 | C=C(C)CC1NC2CC(C)(C)C1c1c(-c3ccc(Cl)c(Cl)c3)cccc12 (racemic) [Compound 12a, (±)-(1S,4R,9S)-5-(3,4-Dichlorophenyl)-3,3-dimethyl-9-(2-methylallyl)-1,2,3,4-tetrahydro-1,4-(epiminomethano)naphthalene] |
| > 100 | C=C(C)CC1C2c3c(-c4ccc(Cl)c(Cl)c4)cccc3C(CC2(C)C)N1CCCCC (racemic) [Compound 12c] |
| > 100 | C=C(C)CC1C2c3c(Br)cccc3C(CC2(C)C)N1S(C)(=O)=O (racemic) [Compound 14a, (±)-(1S,4R,9S)-5-Bromo-3,3-dimethyl-9-(2-methylallyl)-10-(methylsulfonyl)-1,2,3,4-tetrahydro-1,4-(epiminomethano)naphthalene] |
